Assay results taken from US10124004B2, “Pyrido[3,4-d]pyrimidine derivative and pharmaceutically acceptable salt thereof” (Teijin Pharma Limited, priority 2015, dated 2018).
Where two headings read alike, the source gives them in different places.

Key:
[1] = target: T1, CDK4/cyclin D3 (Homo sapiens, UniProt P11802); assay: Human CDK4/cyclin D3 inhibitory activity (QS S Assist CDK4/Cyclin D3_FP Kit, IMAP fluorescence polarization); format: biochemical
T1 construct: purchased Carna Biosciences, Inc. QS S Assist CDK4/Cyclin D3_FP Kit
T1 sequence (P11802 whole entry): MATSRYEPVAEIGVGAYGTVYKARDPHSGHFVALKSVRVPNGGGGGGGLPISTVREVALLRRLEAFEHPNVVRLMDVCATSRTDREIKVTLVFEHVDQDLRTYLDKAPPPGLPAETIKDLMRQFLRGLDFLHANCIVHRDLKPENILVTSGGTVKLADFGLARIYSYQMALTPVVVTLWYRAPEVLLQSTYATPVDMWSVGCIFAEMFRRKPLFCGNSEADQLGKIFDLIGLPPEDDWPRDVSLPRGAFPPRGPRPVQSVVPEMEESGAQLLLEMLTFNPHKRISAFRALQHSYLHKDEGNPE
T1 sequence (P30281 whole entry partner): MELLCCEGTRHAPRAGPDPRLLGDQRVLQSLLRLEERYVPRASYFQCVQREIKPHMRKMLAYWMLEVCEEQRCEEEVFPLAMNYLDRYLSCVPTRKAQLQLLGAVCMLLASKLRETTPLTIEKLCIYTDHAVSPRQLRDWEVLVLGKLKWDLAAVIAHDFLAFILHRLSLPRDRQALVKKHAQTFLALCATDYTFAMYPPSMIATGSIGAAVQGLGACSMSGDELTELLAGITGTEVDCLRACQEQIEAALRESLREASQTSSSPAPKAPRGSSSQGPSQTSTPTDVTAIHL
Outline: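 IMAP fluorescence-polarization kinase assay with kit ATP/substrate/metal mix and 12.5 to 25 ng/well enzyme in 20 mM HEPES pH 7.4, 0.01% Tween20, 2 mM DTT. Reaction ran 45 min at room temperature, then binding reagent was added for 30 min in the dark. IC50 was taken from dose-response fits of percent inhibition.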

[2] = target: T2, CDK2/cyclin A2 (Homo sapiens, UniProt P24941); assay: Human CDK2/cyclin A2 inhibitory activity (QS S Assist CDK2/Cyclin A2_FP Kit, IMAP fluorescence polarization); format: biochemical
T2 construct: purchased Carna Biosciences, Inc. QS S Assist CDK2/Cyclin A2_FP Kit
Protocol: Human CDK2/Cyclin A^2 Inhibitory Activity
Each compound was analyzed for CDK2/cyclin A2 inhibitory activity with an assay kit (QS S Assist CDK2/Cyclin A2_FP Kit, available from Carna Biosciences, Inc.). This assay kit determines kinase activity on the basis of the IMAP technology by Molecular Devices. Specifically, the kinase activity is determined through quantification of a variation in fluorescent polarization caused by binding of a kinase-phosphorylated fluorescent substance to an IMAP-binding reagent.
An assay buffer was prepared by 10-fold dilution of the 10× assay buffer attached to the kit with distilled water, and each solution was prepared with the assay buffer. The assay buffer contained 20 mM HEPES (pH 7.4), 0.01% Tween 20, and 2 mM dithiothreitol. A test compound solution was prepared by dilution of the test compound with dimethyl sulfoxide (DMSO) to a concentration 100 times higher than the final concentration and then 25-fold dilution with the assay buffer to a concentration four times higher than the final concentration. An ATP/substrate/Metal solution was prepared by five-fold dilution of the 5×ATP/substrate/Metal solution attached to the kit with the assay buffer. An enzyme solution was prepared by dilution of the CDK2/cyclin A2 attached to the kit with the assay buffer to a concentration twice higher than the final concentration (final concentration of CDK2/cyclin A2: 2.5 ng/well). A detection reagent was prepared by five-fold dilution of 5×IMAP-binding buffer A with distilled water and 400-fold dilution of the IMAP-binding reagent with the diluted buffer.
The test compound solution (5 μL/well) and the ATP/substrate/Metal solution (5 μL/well) were added to a 384-well plate, and the enzyme solution or the assay buffer (10 μL/well) was added to the plate (total amount of the reaction mixture: 20 μL/well) for initiation of enzymatic reaction. […] The reaction was performed at room temperature for 60 minutes, and the detection reagent (60 μL/well) was then added to the plate, followed by further reaction for 30 minutes at room temperature under light shielding conditions. Subsequently, fluorescent polarization was determined with a microplate reader at an excitation wavelength of 485 nm and an emission wavelength of 535 nm.
The percent inhibition of enzyme activity was calculated for each test compound (note: enzyme activity=100% in the case of addition of the enzyme solution and addition of DMSO instead of the test compound solution, whereas enzyme activity=0% in the case of addition of the assay buffer instead of the enzyme solution and addition of DMSO instead of the test compound solution). The percent inhibition of enzyme activity was fitted to a dose-response curve, to determine a 50% inhibitory concentration against CDK2/cyclin A2.
In each table, “+++” corresponds to IC50<10 nM, “++” 10 nM≤IC50<100 nM, and “+” 100 nM≤IC50.

[3] = 50% inhibitory concentration against CDK4/cyclin D3, given as class symbol
[4] = 50% inhibitory concentration against CDK2/cyclin A2, given as class symbol
[5] = Human CDK4/cyclin D3 inhibitory activity, read-out: CDK4 Activity symbol
[6] = Human CDK2/cyclin A2 inhibitory activity, read-out: CDK2 Activity symbol

SMILES	IC50 [1, 3]	IC50 [2, 4]	IC50 [1, 5]	IC50 [2, 6]
CC(C)Nc1nc([C@@H](C)O)cc2cnc(Nc3ccc4c(n3)CNC4)nc12 [Compound 695]	< 10 nM	≥ 100 nM	–	–
Cc1nc(Nc2ncc3cc(C4CCOC4)nc(NC(C)C)c3n2)ccc1N1CCNCC1=O (single isomer, unassigned) [Compound 876]	< 10 nM	≥ 100 nM	–	–
C[C@@H](O)c1cc2cnc(Nc3ccc(CN4CCN(CCO)CC4)cn3)nc2c(NC2CCC2)n1 [Compound 998]	< 10 nM	≥ 100 nM	–	–
CC(C)Nc1nc([C@@H](C)O)cc2cnc(Nc3ccc(CC(=O)N4CCNCC4)cn3)nc12 [Compound 519]	–	–	< 10 nM	≥ 100 nM
C[C@@H](O)c1cc2cnc(Nc3ccc(O[C@H]4CC[C@H](N(C)C)CC4)cn3)nc2c(N[C@H]2CCCOC2)n1 [Compound 786]	< 10 nM	≥ 100 nM	–	–
CO[C@H](C)c1cc2cnc(Nc3ccc(CN4CCNCC4=O)cn3)nc2c(NC(C)C)n1 [Compound 237]	–	–	10 to 100 nM	≥ 100 nM
CC(C)Nc1nc(C(F)F)cc2cnc(Nc3ccc(CN4CC(O)C4)cn3)nc12 [Compound 126]	–	–	≥ 100 nM	≥ 100 nM
CC(C)CNc1nc([C@@H](C)O)cc2cnc(Nc3ccc(N4CCNCC4)nn3)nc12 [Compound 827]	< 10 nM	≥ 100 nM	–	–
CNCC(F)COc1ccc(Nc2ncc3cc([C@@H](C)OC)nc(NC(C)C)c3n2)nc1 (some centres unmarked) [Compound 509]	–	–	< 10 nM	≥ 100 nM
COCC(C)(C)Nc1nc([C@@H](C)O)cc2cnc(Nc3ccc(CC(N)=O)cn3)nc12 [Compound 222]	–	–	10 to 100 nM	≥ 100 nM
CCC(OC)c1cc2cnc(Nc3ccc(N4CCNCC4)nn3)nc2c(NC(C)C)n1 (centres unmarked) [Compound 1069]	10 to 100 nM	≥ 100 nM	–	–
CCCNc1nc([C@@H](C)O)cc2cnc(Nc3ccc4c(n3)CCN(C(=O)OCCN(C)C)C4)nc12 [Compound 1141]	< 10 nM	≥ 100 nM	–	–
CC(C)Nc1nc(C(F)F)cc2cnc(Nc3ccc(N4C[C@H](O)CC4=O)cn3)nc12 [Compound 183]	–	–	< 10 nM	10 to 100 nM
CC(C)CNc1nc([C@@H](C)O)cc2cnc(Nc3ccc(N4CCNCC4=O)cn3)nc12 [Compound 826]	< 10 nM	≥ 100 nM	–	–
FC(F)c1cc2cnc(Nc3ccc(N4CCNCC4)nn3)nc2c(NC2CCOCC2)n1 [Compound 365]	–	–	< 10 nM	≥ 100 nM
CN[C@H]1CC[C@@H](Oc2ccc(Nc3ncc4cc([C@@H](C)O)nc(NC(C)C)c4n3)nc2)CC1 [Compound 738]	< 10 nM	≥ 100 nM	–	–
CC(O)c1cc2cnc(Nc3ccc(N4CCNCC4)cn3)nc2c(NC2CCCC2)n1 (centres unmarked) [Compound 8]	–	–	< 10 nM	≥ 100 nM
CC(C)Nc1nc(C2CCOC2)cc2cnc(Nc3ccc(N4CCNCC4=O)cn3)nc12 (centres unmarked) [Compound 763]	< 10 nM	≥ 100 nM	–	–
CC(C)Nc1nc([C@H](C)O)cc2cnc(Nc3ccc(N4CCNCC4=O)cn3)nc12 [Compound 1217]	10 to 100 nM	≥ 100 nM	–	–
CO[C@H](C)c1cc2cnc(Nc3ccc(CN4CCOCC4)cn3)nc2c(NC(C)C)n1 [Compound 172]	–	–	10 to 100 nM	≥ 100 nM
CC(C)CN1CCN(c2ccc(Nc3ncc4cc([C@@H](C)O)nc(NC(C)C)c4n3)nc2)C(=O)C1 [Compound 596]	–	–	< 10 nM	≥ 100 nM
CN[C@H]1CC[C@H](Oc2ccc(Nc3ncc4cc([C@@H](C)O)nc(NC(C)C)c4n3)nc2)CC1 [Compound 737]	< 10 nM	≥ 100 nM	–	–
C[C@@H](O)c1cc2cnc(Nc3ccc(CN4CCC[C@@H](O)C4)cn3)nc2c(NC(C)(C)C)n1 [Compound 1197]	< 10 nM	≥ 100 nM	–	–
C[C@@H](O)c1cc2cnc(Nc3ccc(CN4CCN(CCO)CC4)cn3)nc2c(NCC2CC2)n1 [Compound 999]	< 10 nM	≥ 100 nM	–	–
CC(C)Nc1nc([C@@H](C)O)cc2cnc(Nc3ccc(N4CCCC5(CCCN5)C4=O)cn3)nc12 (some centres unmarked) [Compound 630]	< 10 nM	≥ 100 nM	–	–

SMILES	IC50 [1, 3]	IC50 [2, 4]	IC50 [1, 5]	IC50 [2, 6]
C[C@@H](O)c1cc2cnc(Nc3ccc(N4CCNCC4)nn3)nc2c(N[C@H]2CC[C@H](C(=O)O)CC2)n1 [Compound 338]	–	–	< 10 nM	≥ 100 nM
CC(C)Nc1nc([C@@H](C)O)cc2cnc(Nc3ccc(N4CCC(O)CC4)nn3)nc12 [Compound 260]	–	–	< 10 nM	≥ 100 nM
CCCNc1nc(C2CCCO2)cc2cnc(Nc3ccc(N4CCNCC4)cn3)nc12 (single isomer, unassigned) [Compound 1025]	≥ 100 nM	≥ 100 nM	–	–
CCCNc1nc([C@@H](C)O)cc2cnc(Nc3ccc(CN4CCN(C)CC4)cn3)nc12 [Compound 1104]	< 10 nM	≥ 100 nM	–	–
CCC(O)c1cc2cnc(Nc3ccc(N4CCNCC4)cn3)nc2c(NC(C)C)n1 (centres unmarked) [Compound 1035]	< 10 nM	≥ 100 nM	–	–
CC(C)Nc1nc([C@@H](C)O)cc2cnc(Nc3ccc4c(n3)CCNC4)nc12 [Compound 693]	< 10 nM	≥ 100 nM	–	–
CO[C@H](C)c1cc2cnc(Nc3ccc(N4CCNCC4)nn3)nc2c(N[C@H]2CCOC2)n1 [Compound 306]	–	–	10 to 100 nM	≥ 100 nM
COC1CCN(Cc2ccc(Nc3ncc4cc([C@@H](C)OC)nc(NC(C)C)c4n3)nc2)CC1 [Compound 274]	–	–	< 10 nM	≥ 100 nM
CO[C@H](C)c1cc2cnc(Nc3ccc4c(n3)CCN(C(=O)CO)C4)nc2c(N[C@H]2CCCOC2)n1 [Compound 1113]	10 to 100 nM	≥ 100 nM	–	–
CNC1CC2(C1)CN(c1ccc(Nc3ncc4cc([C@@H](C)OC)nc(NC(C)C)c4n3)nc1)C2 [Compound 512]	–	–	< 10 nM	≥ 100 nM
CC(C)Nc1nc(C(F)F)cc2cnc(Nc3ccc(C4=CC(=O)NCC4)cn3)nc12 [Compound 203]	–	–	< 10 nM	10 to 100 nM
CC(C)Nc1nc(C(F)F)cc2cnc(Nc3ccc(CN4CCOCC4)cn3)nc12 [Compound 94]	–	–	< 10 nM	≥ 100 nM
CCCNc1nc([C@@H](C)O)cc2cnc(Nc3ccc(CN4CCC(O)CC4)cn3)nc12 [Compound 1022]	< 10 nM	≥ 100 nM	–	–
CC(O)c1cc2cnc(Nc3ccc(N4CCNCC4)cn3)nc2c(NC(C)c2ccccc2)n1 (centres unmarked) [Compound 70]	–	–	< 10 nM	≥ 100 nM
CC1(c2cc3cnc(Nc4ccc(N5CCNCC5)nn4)nc3c(N[C@H]3CCCOC3)n2)COC1 [Compound 880]	< 10 nM	≥ 100 nM	–	–
CCCCNc1nc([C@@H](C)O)cc2cnc(Nc3ccc(CN4CCC(O)CC4)cn3)nc12 [Compound 1061]	< 10 nM	≥ 100 nM	–	–
CC(C)Nc1nc([C@@H](C)O)cc2cnc(Nc3ccc(N4CC5(CC(N(C)C)C5)C4)nn3)nc12 [Compound 611]	–	–	< 10 nM	≥ 100 nM
COCC(C)(C)Nc1nc([C@@H](C)O)cc2cnc(Nc3ccc(C4CCN(C(C)=O)CC4)cn3)nc12 [Compound 225]	–	–	< 10 nM	≥ 100 nM
CCCNc1nc(C(C)=O)cc2cnc(Nc3ccc(CN4CCNCC4)cn3)nc12 [Compound 910]	10 to 100 nM	≥ 100 nM	–	–
CO[C@H](C)c1cc2cnc(Nc3ccc(N4CCNCC4)nn3)nc2c(NC2CCOCC2)n1 [Compound 285]	–	–	< 10 nM	≥ 100 nM
CN(C)CCN1CCc2nc(Nc3ncc4cc(C5(C)COC5)nc(N[C@H]5CC[C@H](O)CC5)c4n3)ccc2C1 [Compound 1182]	< 10 nM	≥ 100 nM	–	–
CC(C)Nc1nc([C@@H](C)O)cc2cnc(Nc3ccc(CN4CCN(C(C)C)CC4)cn3)nc12 [Compound 633]	< 10 nM	≥ 100 nM	–	–
COC(C)c1cc2cnc(Nc3ccc(CN4CCNCC4)cn3)nc2c(NCC2CCCOC2)n1 (centres unmarked) [Compound 400]	–	–	< 10 nM	≥ 100 nM
C[C@@H](O)c1cc2cnc(Nc3ccc(C4CCNCC4)cn3)nc2c(N[C@H]2CCCOC2)n1 [Compound 957]	< 10 nM	≥ 100 nM	–	–
